Test results from the supplement of paper PMC10307832.

Tests used:
Assay in all cases: relative viability (nuclei count vs DMSO), 5 days (fraction); higher = more cells survive
[1] = compound: C1=CC=C(C(=C1)C2=CC=C(C=C2)C3=CSC4=C3C(=C(C(=O)N4)C#N)O)O + CS(=O)(=O)CCNCc1ccc(-c2ccc3ncnc(Nc4ccc(OCc5cccc(F)c5)c(Cl)c4)c3c2)o1 [Lapatinib] (partner 2 µM)
Summary of the method: (§1)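 One day after seeding in 1536-well plates, lung cancer cell lines were dosed by pin tool. Dosing was either single-drug or a fixed anchor-drug dose plus five library-drug doses (not always all listed) in √10 steps. After 5 days, nuclei were stained in one fix-and-stain step and counted on 4× images, and relative viability is the nuclei count of treated wells over that of vehicle wells, given as the median of duplicate plates.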

TGX 221 + Dasatinib = compound: CC1=CN2C(=O)C=C(N=C2C(=C1)C(C)NC3=CC=CC=C3)N4CCOCC4 [TGX 221] + Cc1nc(Nc2ncc(C(=O)Nc3c(C)cccc3Cl)s2)cc(N2CCN(CCO)CC2)n1 [Dasatinib] (partner 0.075 µM)
Summary of the method: as §1

[2] = compound: C1=CC=C(C(=C1)C2=CC=C(C=C2)C3=CSC4=C3C(=C(C(=O)N4)C#N)O)O + CC1(C)CCC(c2ccc(Cl)cc2)=C(CN2CCN(c3ccc(C(=O)NS(=O)(=O)c4ccc(N[C@H](CCN5CCOCC5)CSc5ccccc5)c(S(=O)(=O)C(F)(F)F)c4)cc3)CC2)C1 [Navitoclax] (partner 0.5 µM)
Summary of the method: as §1

[3] = compound: O=C(CCCCCCNC(=O)c1cnc(N(c2ccccc2)c2ccccc2)nc1)NO [Ricolinostat] + CS(=O)(=O)N1CCN(Cc2cc3nc(-c4cccc5[nH]ncc45)nc(N4CCOCC4)c3s2)CC1 [Pictilisib] (partner 1 µM)
Summary of the method: as §1

[4] = compound: C1=CC=C(C(=C1)C2=CC=C(C=C2)C3=CSC4=C3C(=C(C(=O)N4)C#N)O)O + COc1cccc2cc(-c3nc([C@H]4CC[C@H](C(=O)O)CC4)n4ncnc(N)c34)[nH]c12 [OSI-027] (partner 0.5 µM)
Summary of the method: as §1

Q: How did the relative viability ([1]; first compound 0.253 µM) turn out when NCI-H1792 was run?
A: Its relative viability is 0.543.

Q: And the relative viability ([1]; first compound 0.8 µM)?
A: The relative viability was 0.854.

Q: And the relative viability ([1]; first compound 2.53 µM)?
A: Its relative viability is 0.92.

Q: What about the relative viability ([1]; first compound 8 µM) of the same cell line?
A: Its relative viability is 0.658.

Q: And the relative viability (TGX 221 + Dasatinib; first compound 0.08 µM)?
A: The relative viability was 0.831.

Q: And the relative viability (TGX 221 + Dasatinib; first compound 0.253 µM)?
A: Its relative viability is 0.699.

Q: And the relative viability (TGX 221 + Dasatinib; first compound 0.8 µM)?
A: Its relative viability is 0.785.

Q: And the relative viability (TGX 221 + Dasatinib; first compound 2.53 µM)?
A: Its relative viability is 0.7.

Q: And the relative viability (TGX 221 + Dasatinib; first compound 8 µM)?
A: Its relative viability is 0.503.

Q: And the relative viability ([2]; first compound 0.253 µM)?
A: Its relative viability is 0.441.

Q: What about the relative viability ([2]; first compound 0.8 µM) of the same cell line?
A: Its relative viability is 0.354.

Q: What about the relative viability ([2]; first compound 2.53 µM) of the same cell line?
A: Its relative viability is 0.704.

Q: And the relative viability ([2]; first compound 8 µM)?
A: The relative viability was 0.276.

Q: What about the relative viability ([3]; first compound 0.08 µM) of the same cell line?
A: Its relative viability is 0.248.

Q: What about the relative viability ([3]; first compound 0.253 µM) of the same cell line?
A: Its relative viability is 0.281.

Q: And the relative viability ([3]; first compound 0.8 µM)?
A: The relative viability was 0.243.

Q: And the relative viability ([3]; first compound 2.53 µM)?
A: The relative viability was 0.169.

Q: And the relative viability ([4]; first compound 0.253 µM)?
A: Its relative viability is 0.688.

Q: And the relative viability ([4]; first compound 2.53 µM)?
A: The relative viability was 0.667.

Q: What about the relative viability ([4]; first compound 8 µM) of the same cell line?
A: The relative viability was 0.477.
